Assay results: US10358469B2, “Methods and pharmaceutical compositions for the treatment of cancer” (INSERM (INSTITUT NATIONAL DE LA SANTÉ ET DE LA RECHERCHE …, priority 2014, dated 2019)

Experiments:
solid tumor cell lines = test: Cell viability (MTT) of an array of solid tumor cell lines under low serum; type: cell-based; conditions: increasing concentrations, 24 hours, low serum conditions, FIG. 1B
Procedure: (A) Karpas 1106, SU-DHL-5, SeAx and HUT-78 cells were plated at a densities of 6×10^3 in 96 well plates (100 μL total volume per well) and treated for 24 hours in a 37° C. incubator (5% CO2) with increasing concentrations of the Antp-AAC-11-LZ (363-399). 20 μL MTS reagent was then added to each well and plates were incubated for an additional 4 hours. Absorbance was measured at 490 nm using a 96-well plate reader. The extent to which the Antp-AAC-11-LZ (363-399) peptide inhibited cell proliferation was calculated as a percentage of the absorbance in each well containing the Antp-AAC-11-LZ (363-399) peptide relative to wells containing no peptide (negative control). […]
Viability of cells cultured in the 96-well culture plates was assessed by measuring mitochondrial dehydrogenase activity, using the colorimetric CellTiter 96® AQueous One Solution Cell Proliferation Assay (Promega), according to the manufacturer′ instructions. […] The color can then be quantified using a simple colorimetric assay. The results are read on a multiwall scanning spectrophotometer (ELISA reader).
The inventors evaluated the capacity of the Antp-AAC-11-LZ (363-399) peptide to induce cell death a panel of hematologic and solid tumor cell lines, both P53 positive and P53 negative, derived from different tissues of origin, under low serum conditions (0.5-5%). […]

A549 cells = test: Cell viability (MTT) of A549 cells under low serum / serum deprivation; type: cell-based
Procedure: (A) Karpas 1106, SU-DHL-5, SeAx and HUT-78 cells were plated at a densities of 6×10^3 in 96 well plates (100 μL total volume per well) and treated for 24 hours in a 37° C. incubator (5% CO2) with increasing concentrations of the Antp-AAC-11-LZ (363-399). 20 μL MTS reagent was then added to each well and plates were incubated for an additional 4 hours. Absorbance was measured at 490 nm using a 96-well plate reader. The extent to which the Antp-AAC-11-LZ (363-399) peptide inhibited cell proliferation was calculated as a percentage of the absorbance in each well containing the Antp-AAC-11-LZ (363-399) peptide relative to wells containing no peptide (negative control). Each bar represents the mean±s.d. from at least three independent experiments. (B) Indicated cells were plated at a densities of 4.5×10^3 in 96 well plates (100 μL total volume per well) and allowed to attach overnight in a 37° C. incubator (5% CO2). Media was removed from cells and replaced with media containing Antp-AAC-11-LZ (363-399) peptide at various concentrations (100 μL total volume per well) peptide and the plates were incubated for 24 hours. The MTT assay was then completed and data analysis was performed as described herein. […] A549 cells were plated at a densities of 4.5×10^3 in 96 well plates (100 μL total volume per well) and allowed to attach overnight in a 37° C. incubator (5% CO2). Media was removed from cells and replaced with media containing the indicated peptides at 10 μM (100 μL total volume per well) and the plates were incubated for 24 hours. The MTT assay was then completed and data analysis was performed as described herein.
(A) A549 cells were plated at a densities of 4.5×10^3 in 96 well plates (100 μL total volume per well) and allowed to attach overnight in a 37° C. incubator (5% CO2). Media was removed from cells and replaced with media containing the indicated peptides at various concentrations (100 μL total volume per well) peptide in the absence of serum and the plates were incubated for 24 hours. The MTT assay was then completed and data analysis was performed as described herein. (B) A549 or HaCat cells were plated at a densities of 4.5×10^3 in 96 well plates (100 μL total volume per well) and allowed to attach overnight in a 37° C. incubator (5% CO2). Media was removed from cells and replaced with media containing the indicated peptides at 10 μM (100 μL total volume per well) peptide in the absence of serum and the plates were incubated for 24 hours. The MTT assay was then completed and data analysis was performed as described herein.
A549 cells were plated at a densities of 4.5×10^3 in 96 well plates (100 μL total volume per well) and allowed to attach overnight in a 37° C. incubator (5% CO2). Cells were left untreated or pre-treated with 100 μM Z-VAD-FMK for 2 h. […] The MTT assay was then completed and data analysis was performed as described herein.
(A) A549 cells were plated at a densities of 4.5×10^3 in 96 well plates (100 μL total volume per well) and allowed to attach overnight in a 37° C. incubator (5% CO2). Media was removed from cells and replaced with media containing the indicated Antp-AAC-11-LZ peptides at various concentrations (100 μL total volume per well) peptide and the plates were incubated for 24 hours. The MTT assay was then completed and data analysis was performed as described herein. (B) A549 or HaCat cells were plated at a densities of 4.5×10^3 in 96 well plates (100 μL total volume per well) and allowed to attach overnight in a 37° C. incubator (5% CO2). Media was removed from cells and replaced with media containing the indicated peptides at 10 μM (100 μL total volume per well) peptide in the absence of serum and the plates were incubated for 24 hours. The MTT assay was then completed and data analysis was performed as described herein.

Substance: Ac-RQIKIWFKKQNRRMKWKKAKLNAEKLKDFKIRLQYFARGLQVYIRQLRLALQGKT-NH2 [Antp-AAC-11-LZ (363-399)]
- cell viability loss of the cancer cell lines (solid tumor cell lines): marked cell viability loss
- cellular viability (A549 cells; 2 µM): 97 % of control
- influence of cycloheximide on peptide induced-cytotoxicity (A549 cells; 10 μM cycloheximide, various peptide concentrations, data not shown): had no influence
- induction of cell death of A549 cells (A549 cells; 10 μM, serum deprivation, 24 hours, FIG. 1C): induced cell death
- effect of pan-caspase inhibitor Z-VAD-FMK on induced cytotoxicity / cell death (A549 cells; 100 μM Z-VAD-FMK, 2 h pre-treatment, 24 hours, cisplatin 50 μM, FIG. 3): did not rescue, but somehow increased
